Measured values as given in US20250195521A1 (Revolution Medicines, Inc., priority 2020, published 2025).
Read-outs that look alike come from different tables or passages of the source.

Legend:
[1] = tested on: K-Ras G12C (NCI-H358 cells); experiment: Potency assay: pERK in NCI-H358 cells; format: cell-based, human; details: Homo sapiens; NCI-H358 cells, 4 hours; read-out: pERK EC50 (H358 KRAS G12C)
Summary of the method: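 Cells plated the day before were exposed for 4 h at 37° C, 5% CO2 to a 10-point, 3-fold DMSO dilution series (10 mM top stock), in duplicate. Phospho-ERK was read by AlphaLISA SureFire Ultra or by In-Cell Western with DRAQ5 DNA stain, and IC50 came from a 4-parameter sigmoidal fit.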

[2] = tested on: Capan-1 cells (K-Ras G12V); experiment: CellTiter-Glo cell viability, Capan-1; format: cell-based, human; details: K-Ras G12V, 5-day treatment, read-out: Capan-1 Cell Viability IC50
Summary of the method: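 Viability is read as luminescence after five days of compound exposure, with plates first equilibrated to room temperature for roughly 30 minutes. Each signal is expressed as a percentage of the mean DMSO control, and curves are fitted by four-parameter logistic regression.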

[3] = biological target: KRAS G13D (Homo sapiens (Human), UniProt P01116+P62937, G13D); experiment: Ras-Raf disruption/FRET/MOA assay (BRAF RBD, Cyclophilin A); format: biochemical; details: read-out: KRAS G13D FRET data IC50
Procedure: (§1) Compound is present in plate wells as a 10-point 3-fold dilution series starting at a final concentration of 30 μM. After incubation at 25° C. for 3 hours, a mixture of Anti-His Eu—W1024 and anti-GST allophycocyanin is then added to assay sample wells at final concentrations of 10 nM and 50 nM, respectively, and the reaction incubated for an additional 1.5 hours. […] Compounds that facilitate disruption of a Ras: RAF complex are identified as those eliciting a decrease in the TR-FRET ratio relative to DMSO control wells.
(§2) Disruption of B-Raf Ras-Binding Domain (BRAF^RBD) Interaction with K-Ras by Compounds of the Invention (Also Called a FRET Assay or an MOA Assay)
(§3) Note—The following protocol describes a procedure for monitoring disruption of K-Ras G12C (GMP-PNP) binding to BRAF^RBD by a compound of the invention. This protocol may also be executed substituting other Ras proteins or nucleotides.
(§4) The purpose of this biochemical assay was to measure the ability of test compounds to facilitate ternary complex formation between a nucleotide-loaded K-Ras isoform and Cyclophilin A; the resulting ternary complex disrupts binding to a BRAF^RBD construct, inhibiting K-Ras signaling through a RAF effector. Data is reported as IC50 values.
(§5) In assay buffer containing 25 mM HEPES pH 7.3, 0.002% Tween20, 0.1% BSA, 100 mM NaCl and 5 mM MgCl2, tagless Cyclophilin A, His6-K-Ras-GMPPNP, and GST-BRAF^RBD were combined in a 384-well assay plate at final concentrations of 25 μM, 12.5 nM and 50 nM, respectively. Compound was present in plate wells as a 10-point 3-fold dilution series starting at a final concentration of 30 μM. After incubation at 25° C. for 3 hours, a mixture of Anti-His Eu—W1024 and anti-GST allophycocyanin was then added to assay sample wells at final concentrations of 10 nM and 50 nM, respectively, and the reaction incubated for an additional 1.5 hours. […] Compounds that facilitate disruption of a K-Ras: RAF complex were identified as those eliciting a decrease in the TR-FRET ratio relative to DMSO control wells.

[4] = biological target: KRAS G12V (Homo sapiens (Human), UniProt P01116+P62937, G12V); experiment: as above; format: biochemical; details: read-out: KRAS G12V FRET IC50
Procedure: as §1, §2, §3, §4, §5

[5] = biological target: KRAS G12S (Homo sapiens (Human), UniProt P01116+P62937, G12S); experiment: as above; format: biochemical; details: read-out: KRAS G12S FRET IC50
Procedure: as §1, §2, §3, §4, §5

[6] = biological target: KRAS WT (Homo sapiens (Human), UniProt P01116+P62937); experiment: as above; format: biochemical; details: read-out: KRAS WT FRET data IC50
Procedure: as §1, §2, §3, §4, §5

[7] = biological target: KRAS G13C (Homo sapiens (Human), UniProt P01116+P62937, G13C); experiment: as above; format: biochemical; details: read-out: KRAS G13C FRET IC50
Procedure: as §1, §2, §3, §4, §5

[8] = biological target: NRAS G12C (Homo sapiens (Human), UniProt P01111+P62937, G12C); experiment: as above; format: biochemical; details: read-out: NRAS G12C FRET data IC50
Procedure: as §1, §2, §3, §4, §5

[9] = biological target: KRAS G12D (Homo sapiens (Human), UniProt P01116+P62937, G12D); experiment: as above; format: biochemical; details: read-out: KRAS G12D FRET IC50
Procedure: as §1, §2, §3, §4, §5

[10] = biological target: KRAS G12C (Homo sapiens (Human), UniProt P01116+P62937, G12C); experiment: as above; format: biochemical; details: read-out: KRAS G12C FRET IC50
Procedure: as §1, §2, §3, §4, §5

Sequence of KRAS G13C (P01116 other isoform, or with tags, fused parts or gaps G13C): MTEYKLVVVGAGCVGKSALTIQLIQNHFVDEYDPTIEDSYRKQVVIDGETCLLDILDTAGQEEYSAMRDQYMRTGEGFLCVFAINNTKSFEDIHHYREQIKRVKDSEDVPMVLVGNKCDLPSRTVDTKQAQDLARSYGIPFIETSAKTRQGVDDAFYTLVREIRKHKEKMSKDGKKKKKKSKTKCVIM
Sequence of KRAS G13C (P62937 whole entry): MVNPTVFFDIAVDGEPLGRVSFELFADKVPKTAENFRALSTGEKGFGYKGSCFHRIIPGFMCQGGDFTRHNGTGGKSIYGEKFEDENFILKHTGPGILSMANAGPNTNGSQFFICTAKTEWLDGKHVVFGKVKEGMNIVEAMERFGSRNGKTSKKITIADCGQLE
Sequence of KRAS WT (P01116 other isoform, or with tags, fused parts or gaps): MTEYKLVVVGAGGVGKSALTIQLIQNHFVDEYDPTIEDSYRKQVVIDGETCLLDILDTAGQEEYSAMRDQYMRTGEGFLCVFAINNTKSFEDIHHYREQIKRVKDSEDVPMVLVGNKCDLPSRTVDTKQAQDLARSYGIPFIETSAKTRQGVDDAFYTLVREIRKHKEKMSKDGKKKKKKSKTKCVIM
Sequence of KRAS WT (P62937 whole entry): as the sequence (P62937 whole entry) above
Sequence of KRAS G13D (P01116 other isoform, or with tags, fused parts or gaps G13D): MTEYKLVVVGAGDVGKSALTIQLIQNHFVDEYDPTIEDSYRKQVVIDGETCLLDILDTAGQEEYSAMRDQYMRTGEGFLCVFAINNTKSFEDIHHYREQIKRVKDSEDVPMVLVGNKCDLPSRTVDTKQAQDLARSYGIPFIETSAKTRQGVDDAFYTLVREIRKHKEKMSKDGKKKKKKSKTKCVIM
Sequence of KRAS G13D (P62937 whole entry): as the sequence (P62937 whole entry) above
Sequence of KRAS G12V (P01116 other isoform, or with tags, fused parts or gaps G12V): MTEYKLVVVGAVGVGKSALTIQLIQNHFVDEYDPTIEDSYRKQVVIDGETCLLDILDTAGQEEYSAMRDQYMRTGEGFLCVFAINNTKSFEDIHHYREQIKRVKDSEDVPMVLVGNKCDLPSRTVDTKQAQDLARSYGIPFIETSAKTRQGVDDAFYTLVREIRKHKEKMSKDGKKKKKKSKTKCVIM
Sequence of KRAS G12V (P62937 whole entry): as the sequence (P62937 whole entry) above
Sequence of KRAS G12D (P01116 other isoform, or with tags, fused parts or gaps G12D): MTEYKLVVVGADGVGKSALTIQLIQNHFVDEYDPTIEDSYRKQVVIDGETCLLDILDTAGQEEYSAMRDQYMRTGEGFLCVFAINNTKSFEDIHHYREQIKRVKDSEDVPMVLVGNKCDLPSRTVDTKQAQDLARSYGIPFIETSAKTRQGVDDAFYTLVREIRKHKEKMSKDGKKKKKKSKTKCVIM
Sequence of KRAS G12D (P62937 whole entry): as the sequence (P62937 whole entry) above
Sequence of NRAS G12C (P01111 whole entry G12C): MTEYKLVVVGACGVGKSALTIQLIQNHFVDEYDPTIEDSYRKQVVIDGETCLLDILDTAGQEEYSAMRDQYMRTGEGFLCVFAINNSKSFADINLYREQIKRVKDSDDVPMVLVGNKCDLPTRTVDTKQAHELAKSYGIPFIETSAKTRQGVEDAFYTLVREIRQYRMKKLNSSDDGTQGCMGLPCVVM
Sequence of NRAS G12C (P62937 whole entry): as the sequence (P62937 whole entry) above
Sequence of KRAS G12S (P01116 other isoform, or with tags, fused parts or gaps G12S): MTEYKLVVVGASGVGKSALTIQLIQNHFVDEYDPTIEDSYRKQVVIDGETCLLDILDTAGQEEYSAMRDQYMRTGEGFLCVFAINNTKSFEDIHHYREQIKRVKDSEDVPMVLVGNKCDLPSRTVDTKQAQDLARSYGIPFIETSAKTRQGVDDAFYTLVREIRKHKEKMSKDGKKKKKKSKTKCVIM
Sequence of KRAS G12S (P62937 whole entry): as the sequence (P62937 whole entry) above
Sequence of KRAS G12C (P01116-2 other isoform, or with tags, fused parts or gaps G12C): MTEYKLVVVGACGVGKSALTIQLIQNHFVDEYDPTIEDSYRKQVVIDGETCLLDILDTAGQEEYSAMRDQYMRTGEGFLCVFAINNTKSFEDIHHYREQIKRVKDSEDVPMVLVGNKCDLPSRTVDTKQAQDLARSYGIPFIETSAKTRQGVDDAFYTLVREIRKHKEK
Sequence of KRAS G12C (P62937 whole entry): as the sequence (P62937 whole entry) above

SMILES	EC50 [1]	IC50 [3]	IC50 [4]	IC50 [5]	IC50 [6]	IC50 [7]	IC50 [8]	IC50 [9]	IC50 [10]	IC50 ([2]; Homo sapiens, CAPAN-1, 120 h)	IC50 [2]
CCn1c(-c2cnccc2COC)c2c3cc(ccc31)-c1cc(O)cc(c1)C[C@H](NC(=O)[C@H](C(C)C)N(C)c1nccs1)C(=O)N1CCC[C@H](N1)C(=O)OCC(C)(C)C2 [Compound A86]	< 5000 nM	1000 to 10000 nM	1000 to 10000 nM	1000 to 10000 nM	1000 to 10000 nM	100 to 1000 nM	1000 to 10000 nM	> 10000 nM	100 to 1000 nM	> 10000 nM	
CCn1c(-c2cnccc2COC)c2c3cc(ccc31)-c1cc(O)cc(c1)C[C@H](NC(=O)[C@H](C(C)C)N(C)C(=O)C1CN(C)C1)C(=O)N1CCC[C@H](N1)C(=O)OCC(C)(C)C2 [Compound A88]	< 5000 nM	10 to 100 nM	1000 to 10000 nM	100 to 1000 nM	100 to 1000 nM	10 to 100 nM	100 to 1000 nM	100 to 1000 nM	100 to 1000 nM	> 10000 nM	
CCn1c(-c2cccnc2[C@H](C)OC)c2c3cc(ccc31)-c1cccc(c1)C[C@H](NC(=O)[C@H](C(C)C)N(C)C(=O)[C@H]1CCN(C)C1)C(=O)N1CCC[C@H](N1)C(=O)OCC(C)(C)C2 [Compound A107]	< 5000 nM	1000 to 10000 nM	> 10000 nM	1000 to 10000 nM	1000 to 10000 nM	100 to 1000 nM	1000 to 10000 nM	1000 to 10000 nM	1000 to 10000 nM	1000 to 10000 nM	
CCn1c(-c2cccnc2[C@H](C)OC)c2c3cc(ccc31)-c1cc(O)cc(c1)C[C@H](NC(=O)[C@@H]1[C@H](C)CCN1C(C)=O)C(=O)N1CCC[C@H](N1)C(=O)OCC(C)(C)C2 [Compound A144]	< 5000 nM	1000 to 10000 nM	1000 to 10000 nM	1000 to 10000 nM	100 to 1000 nM	100 to 1000 nM	1000 to 10000 nM	1000 to 10000 nM	100 to 1000 nM	1000 to 10000 nM	
CCn1c(-c2cccnc2[C@H](C)OC)c2c3cc(ccc31)-c1cc(O)cc(c1)C[C@H](NC(=O)[C@H]1C[C@@H]1C)C(=O)N1CCC[C@H](N1)C(=O)OCC(C)(C)C2 [Compound A182]	< 5000 nM	1000 to 10000 nM	1000 to 10000 nM	1000 to 10000 nM	1000 to 10000 nM	100 to 1000 nM	1000 to 10000 nM	> 10000 nM	100 to 1000 nM	1000 to 10000 nM	
CCn1c(-c2cccnc2[C@H](C)OC)c2c3cc(ccc31)-c1csc(n1)C[C@H](NC(=O)[C@H](C(C)C)N(C)C(=O)N1[C@H](C)COC[C@H]1C)C(=O)N1CCC[C@H](N1)C(=O)OCC(C)(C)C2 [Compound A275]	< 5000 nM	10 to 100 nM	10 to 100 nM	10 to 100 nM	10 to 100 nM	10 to 100 nM	10 to 100 nM	100 to 1000 nM	10 to 100 nM	100 to 1000 nM	
CCn1c(-c2cccnc2[C@H](C)OC)c2c3cc(ccc31)-c1csc(n1)C[C@H](NC(=O)[C@H](C(C)C)N(C)C(=O)N1CCN3CCOCC3C1)C(=O)N1CCC[C@H](N1)C(=O)OCC(C)(C)C2 (stereo partly shown) [Compound A296]	< 5000 nM	1000 to 10000 nM	100 to 1000 nM	100 to 1000 nM	100 to 1000 nM	100 to 1000 nM	100 to 1000 nM	1000 to 10000 nM	100 to 1000 nM	10 to 100 nM	
CCn1c(-c2cccnc2[C@H](C)OC)c2c3cc(ccc31)-c1csc(n1)C[C@H](NC(=O)[C@H](C(C)C)N(C)C(=O)N1CC(C3COC3)C1)C(=O)N1CCC[C@H](N1)C(=O)OCC(C)(C)C2 [Compound A298]		100 to 1000 nM	100 to 1000 nM	100 to 1000 nM	10 to 100 nM	100 to 1000 nM	10 to 100 nM	100 to 1000 nM	10 to 100 nM	10 to 100 nM	
CO[C@@H](C)c1ncccc1-c1c2c3cc(ccc3n1CC(F)(F)F)-c1csc(n1)C[C@H](NC(=O)[C@H](C(C)C)N(C)C(=O)N1CC(N(C)C)C1)C(=O)N1CCC[C@H](N1)C(=O)OCC(C)(C)C2 [Compound A303]		100 to 1000 nM	100 to 1000 nM	100 to 1000 nM	100 to 1000 nM	100 to 1000 nM	10 to 100 nM	100 to 1000 nM	10 to 100 nM		10 to 100 nM
CCn1c(-c2cccnc2[C@H](C)OC)c2c3cc(ccc31)-c1cc(O)cc(c1)C[C@H](NC(=O)C(C)=C(C)C)C(=O)N1CCC[C@H](N1)C(=O)OCC(C)(C)C2 [Compound A398]		1000 to 10000 nM	1000 to 10000 nM	1000 to 10000 nM	1000 to 10000 nM	100 to 1000 nM	1000 to 10000 nM	> 10000 nM	1000 to 10000 nM	1000 to 10000 nM	

Second part, led by results:

EC50 [1]	IC50 [3]	IC50 [4]	IC50 [5]	IC50 [6]	IC50 [7]	IC50 [8]	IC50 [9]	IC50 [10]	SMILES	IC50 ([2]; Homo sapiens, CAPAN-1, 120 h)	IC50 [2]
< 5000 nM	100 to 1000 nM	100 to 1000 nM	100 to 1000 nM	100 to 1000 nM	100 to 1000 nM	100 to 1000 nM	100 to 1000 nM	100 to 1000 nM	CCn1c(-c2cccnc2[C@H](C)OC)c2c3cc(ccc31)-c1cc(O)cc(c1)C[C@H](NC(=O)[C@H](C(C)C)N(C)C(=O)[C@H]1CC1(C)C)C(=O)N1CCC[C@H](N1)C(=O)OCC(C)(C)C2 [Compound A158]	1000 to 10000 nM	
	10 to 100 nM	100 to 1000 nM	100 to 1000 nM	100 to 1000 nM	10 to 100 nM	100 to 1000 nM	100 to 1000 nM	100 to 1000 nM	CCn1c(-c2cccnc2[C@H](C)OC)c2c3cc(ccc31)-c1cc(O)cc(c1)C[C@H](NC(=O)[C@H](C(C)C)N(C)C(=O)[C@H]1CNC[C@@H]1C)C(=O)N1CCC[C@H](N1)C(=O)OCC(C)(C)C2 [Compound A251]	> 10000 nM	
	100 to 1000 nM	100 to 1000 nM	1000 to 10000 nM	100 to 1000 nM	100 to 1000 nM	100 to 1000 nM	1000 to 10000 nM	100 to 1000 nM	CCn1c(-c2cccnc2[C@H](C)OC)c2c3cc(ccc31)-c1cc(O)cc(c1)C[C@H](NC(=O)[C@H](C(C)C)N1CNCC1=O)C(=O)N1CCC[C@H](N1)C(=O)OCC(C)(C)C2 [Compound A345]	1000 to 10000 nM	
< 5000 nM	10 to 100 nM	10 to 100 nM	10 to 100 nM	10 to 100 nM	10 to 100 nM	10 to 100 nM	10 to 100 nM	10 to 100 nM	CCn1c(-c2cccnc2[C@H](C)OC)c2c3cc(ccc31)-c1cc(O)cc(c1)C[C@H](NC(=O)[C@H](C(C)C)N(C)C(=O)[C@@H]1CCN(C(=O)OC)C1)C(=O)N1CCC[C@H](N1)C(=O)OCC(C)(C)C2 [Compound A365]	10 to 100 nM	
< 5000 nM	10 to 100 nM	10 to 100 nM	10 to 100 nM	10 to 100 nM	10 to 100 nM	10 to 100 nM	10 to 100 nM	10 to 100 nM	CCn1c(-c2cccnc2[C@H](C)OC)c2c3cc(ccc31)-c1cc(O)cc(c1)C[C@H](NC(=O)[C@H](C(C)C)N(C)C(=O)[C@H]1CCN(C(=O)[C@@H]3CCCN3)C1)C(=O)N1CCC[C@H](N1)C(=O)OCC(C)(C)C2 [Compound A370]	1000 to 10000 nM	
